# In PubChem BioAssay (NCI):
#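 48-hour exposure; five concentrations; linearly interpolated endpoints. GI50 marks 50% less growth. TGI: total growth inhibition.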
# Columns and labels:
# Experiment in all cases: NCI anticancer screen, dose series, 48 h
# CCRF-CEM leukemia = test system: CCRF-CEM leukemia
# HCT-15 colon = test system: HCT-15 colon
# HS 578T breast = test system: HS 578T breast
# M14 melanoma = test system: M14 melanoma
# MCF7 breast = test system: MCF7 breast
# SF-268 CNS = test system: SF-268 CNS
# SK-MEL-28 melanoma = test system: SK-MEL-28 melanoma
# SNB-75 CNS = test system: SNB-75 CNS
# T-47D breast = test system: T-47D breast
# TK-10 renal = test system: TK-10 renal
structure (smiles),measurement,setting,value
COc1ccc2cc1Oc1ccc(cc1)C(Sc1ccccc1)CCOC(=O)CC2 (centres undefined),TGI,CCRF-CEM leukemia,> 100 µM
same,TGI,HCT-15 colon,> 100 µM
same,TGI,HS 578T breast,> 100 µM
same,TGI,M14 melanoma,> 100 µM
same,TGI,MCF7 breast,> 100 µM
same,TGI,SF-268 CNS,> 100 µM
same,TGI,SK-MEL-28 melanoma,> 100 µM
same,TGI,SNB-75 CNS,> 100 µM
same,TGI,T-47D breast,> 100 µM
same,TGI,TK-10 renal,> 100 µM
Cc1sc2nc(-c3cc([N+](=O)[O-])c(Cl)cc3Cl)c(/C=N/N=C(N)N)n2c1C,TGI,CCRF-CEM leukemia,> 100 µM
same,TGI,HCT-15 colon,> 100 µM
same,TGI,HS 578T breast,82.7 µM
same,TGI,M14 melanoma,7 µM
same,TGI,SF-268 CNS,66.1 µM
same,TGI,SK-MEL-28 melanoma,6.58 µM
same,TGI,TK-10 renal,35.7 µM
CC(C)=CC(=O)O[C@H]1C(=O)O[C@@H]2C[C@H]3[C@H](C)C(=O)C(O[C@@H]4O[C@H](CO)[C@@H](O)[C@H](O)[C@H]4O)=C[C@]3(C)[C@H]3[C@@H](O)[C@H](O)[C@]4(C(=O)O)OC[C@]32[C@@H]14,GI50,CCRF-CEM leukemia,36.3 µM
same,TGI,CCRF-CEM leukemia,> 100 µM
same,GI50,HCT-15 colon,> 100 µM
same,TGI,HCT-15 colon,> 100 µM
same,GI50,HS 578T breast,> 100 µM
same,TGI,HS 578T breast,> 100 µM
same,GI50,M14 melanoma,32.1 µM
same,TGI,M14 melanoma,> 100 µM
same,GI50,MCF7 breast,22.2 µM
same,TGI,MCF7 breast,66.1 µM
same,GI50,SF-268 CNS,> 100 µM
same,TGI,SF-268 CNS,> 100 µM
same,GI50,SK-MEL-28 melanoma,37.3 µM
same,TGI,SK-MEL-28 melanoma,> 100 µM
same,TGI,SNB-75 CNS,> 100 µM
same,TGI,T-47D breast,> 100 µM
same,TGI,TK-10 renal,> 100 µM
COC(=O)c1ccccc1C#CC#Cc1ccccc1C(=O)OC,TGI,CCRF-CEM leukemia,> 10 µM
same,TGI,HCT-15 colon,> 10 µM
same,TGI,HS 578T breast,> 10 µM
same,TGI,M14 melanoma,> 10 µM
same,TGI,MCF7 breast,> 10 µM
same,TGI,SF-268 CNS,> 10 µM
same,TGI,SK-MEL-28 melanoma,> 10 µM
same,TGI,T-47D breast,> 10 µM
same,TGI,TK-10 renal,> 10 µM
Cc1nc2c(n1C(C)(C)C)C(=O)c1ccccc1C2=O,TGI,CCRF-CEM leukemia,> 100 µM
same,TGI,HCT-15 colon,> 100 µM
same,TGI,M14 melanoma,> 100 µM
same,TGI,SF-268 CNS,> 100 µM
same,TGI,SK-MEL-28 melanoma,> 100 µM
same,TGI,SNB-75 CNS,> 100 µM
same,TGI,TK-10 renal,> 100 µM
Cc1ccnc2[nH]c(-c3cccc(Cl)c3)cc(=O)c12,TGI,CCRF-CEM leukemia,> 100 µM
same,TGI,HCT-15 colon,> 100 µM
same,TGI,HS 578T breast,> 100 µM
same,TGI,M14 melanoma,> 100 µM
same,TGI,MCF7 breast,> 100 µM
same,TGI,SF-268 CNS,> 100 µM
same,TGI,SK-MEL-28 melanoma,> 100 µM
same,TGI,T-47D breast,> 100 µM
same,TGI,TK-10 renal,> 100 µM
O=C1C(NCCc2ccc(O)c(O)c2)=CC(=O)c2ncccc21,TGI,CCRF-CEM leukemia,60.4 µM
same,TGI,HCT-15 colon,55.7 µM
same,TGI,HS 578T breast,45.2 µM
same,TGI,M14 melanoma,40.5 µM
same,TGI,MCF7 breast,15.8 µM
same,TGI,SF-268 CNS,66.5 µM
same,TGI,SK-MEL-28 melanoma,28.8 µM
same,TGI,SNB-75 CNS,29.4 µM
same,TGI,T-47D breast,65.3 µM
same,TGI,TK-10 renal,> 71.6 µM
FC(F)(F)c1ccccc1N1CCN(c2nc(-c3cccs3)nc3ccc(Br)cc23)CC1,TGI,CCRF-CEM leukemia,39.8 µM
same,TGI,HCT-15 colon,> 100 µM
same,TGI,HS 578T breast,> 100 µM
same,TGI,M14 melanoma,> 100 µM
same,TGI,MCF7 breast,17.5 µM
same,TGI,SF-268 CNS,> 100 µM
same,TGI,SK-MEL-28 melanoma,> 100 µM
same,TGI,SNB-75 CNS,> 100 µM
same,TGI,T-47D breast,> 100 µM
same,TGI,TK-10 renal,97.3 µM
[Se]=P(c1ccccc1)(c1ccccc1)c1ccc(C(c2ccccc2)=P(c2ccccc2)(c2ccccc2)c2ccccc2)cc1,TGI,CCRF-CEM leukemia,8.37 µM
same,TGI,HCT-15 colon,18.8 µM
same,TGI,HS 578T breast,5.24 µM
same,TGI,M14 melanoma,24.5 µM
same,TGI,MCF7 breast,2.93 µM
same,TGI,SF-268 CNS,9.26 µM
same,TGI,SK-MEL-28 melanoma,20.2 µM
same,TGI,SNB-75 CNS,3.49 µM
same,TGI,T-47D breast,7.07 µM
same,TGI,TK-10 renal,6.88 µM
O=C1C(F)=CC(COC(c2ccccc2)(c2ccccc2)c2ccccc2)OC1n1cc(F)c(=O)[nH]c1=O (centres undefined),TGI,CCRF-CEM leukemia,> 32 µM
same,TGI,HCT-15 colon,5.95 µM
same,TGI,HS 578T breast,> 45 µM
same,TGI,M14 melanoma,5.03 µM
same,TGI,MCF7 breast,4.96 µM
same,TGI,SF-268 CNS,12.6 µM
same,TGI,SK-MEL-28 melanoma,3.5 µM
same,TGI,SNB-75 CNS,10.9 µM
same,TGI,T-47D breast,> 28.6 µM
same,TGI,TK-10 renal,3.43 µM
O=C1Sc2ccc(Br)cc2C(=O)Sc2ccccc21,TGI,CCRF-CEM leukemia,7.47 µM
same,TGI,HCT-15 colon,46.5 µM
same,TGI,HS 578T breast,39.3 µM
same,TGI,M14 melanoma,26.6 µM
same,TGI,MCF7 breast,48.3 µM
same,TGI,SF-268 CNS,22.3 µM
same,TGI,SK-MEL-28 melanoma,42.7 µM
same,TGI,SNB-75 CNS,26.1 µM
same,TGI,T-47D breast,31 µM
same,TGI,TK-10 renal,38.3 µM
C1CSCCCSCCSCCCSC1,TGI,HCT-15 colon,> 100 µM
same,TGI,HS 578T breast,> 100 µM
same,TGI,M14 melanoma,> 100 µM
same,TGI,MCF7 breast,> 100 µM
same,TGI,SF-268 CNS,> 100 µM
same,TGI,SK-MEL-28 melanoma,> 100 µM
same,TGI,SNB-75 CNS,> 100 µM
same,TGI,T-47D breast,> 100 µM
same,TGI,TK-10 renal,> 100 µM
O=C(/C=C/c1cccc(Br)c1)c1cccs1,TGI,CCRF-CEM leukemia,23.6 µM
same,TGI,HCT-15 colon,35.8 µM
same,TGI,HS 578T breast,72.3 µM
same,TGI,M14 melanoma,51.1 µM
same,TGI,MCF7 breast,33 µM
same,TGI,SF-268 CNS,42.1 µM
same,TGI,SK-MEL-28 melanoma,32.9 µM
same,TGI,SNB-75 CNS,28.2 µM
same,TGI,T-47D breast,34 µM
same,TGI,TK-10 renal,31.5 µM
C/C(=N/NC(=S)Nc1ccccc1Cl)c1cccc(/C(C)=N\NC(=S)Nc2ccccc2Cl)n1,TGI,CCRF-CEM leukemia,> 100 µM
same,TGI,HCT-15 colon,> 100 µM
same,TGI,HS 578T breast,> 100 µM
same,TGI,M14 melanoma,> 100 µM
same,TGI,MCF7 breast,93.7 µM
same,TGI,SF-268 CNS,> 100 µM
same,TGI,SK-MEL-28 melanoma,> 100 µM
same,TGI,SNB-75 CNS,> 100 µM
same,TGI,T-47D breast,> 100 µM
same,TGI,TK-10 renal,> 100 µM
COc1ccccc1-c1cc(=O)c2ccccc2[nH]1,TGI,CCRF-CEM leukemia,> 100 µM
same,TGI,HCT-15 colon,> 100 µM
same,TGI,M14 melanoma,> 100 µM
same,TGI,SF-268 CNS,> 100 µM
same,TGI,SK-MEL-28 melanoma,> 100 µM
same,TGI,SNB-75 CNS,> 100 µM
same,TGI,TK-10 renal,> 100 µM
Cc1c(C(=O)N2CCN(c3ccc([N+](=O)[O-])cc3)CC2)[n+](=O)c2cc(Cl)c(Cl)cc2n1[O-],TGI,CCRF-CEM leukemia,> 100 µM
same,TGI,HCT-15 colon,36.2 µM
same,TGI,HS 578T breast,93.6 µM
same,TGI,M14 melanoma,> 100 µM
same,TGI,MCF7 breast,33.2 µM
same,TGI,SF-268 CNS,35.2 µM
same,TGI,SK-MEL-28 melanoma,73.4 µM
same,TGI,T-47D breast,45 µM
same,TGI,TK-10 renal,39.3 µM
CN1C(=S)C(c2ccccc2)Sc2ccccc21 (centres undefined),TGI,CCRF-CEM leukemia,> 100 µM
same,TGI,HCT-15 colon,> 100 µM
same,TGI,HS 578T breast,> 100 µM
same,TGI,M14 melanoma,> 100 µM
same,TGI,MCF7 breast,> 100 µM
same,TGI,SF-268 CNS,> 100 µM
same,TGI,SK-MEL-28 melanoma,> 100 µM
same,TGI,SNB-75 CNS,> 100 µM
same,TGI,T-47D breast,> 100 µM
same,TGI,TK-10 renal,> 100 µM
NCCCn1c2ccccc2c2c3c(c4c(c21)CCC(O)CC4)C(=O)NC3=O (centres undefined),TGI,CCRF-CEM leukemia,10.4 µM
same,TGI,HCT-15 colon,23 µM
same,TGI,HS 578T breast,20.9 µM
same,TGI,M14 melanoma,18.2 µM
same,TGI,MCF7 breast,3.58 µM
same,TGI,SF-268 CNS,4.43 µM
same,TGI,SK-MEL-28 melanoma,13.1 µM
same,TGI,TK-10 renal,14.7 µM
COc1ccc(O[C@H](COCc2ccccc2)C[C@@H]2COC(C)(C)O2)cc1,TGI,CCRF-CEM leukemia,> 100 µM
same,TGI,HCT-15 colon,> 100 µM
same,TGI,M14 melanoma,> 100 µM
same,TGI,MCF7 breast,> 100 µM
same,TGI,SF-268 CNS,> 100 µM
same,TGI,SK-MEL-28 melanoma,> 100 µM
same,TGI,SNB-75 CNS,> 100 µM
same,TGI,TK-10 renal,> 100 µM
O=C(CN1CCN(Cc2ccccc2)CC1)N1CCCn2c1nc1ccccc1c2=O,TGI,CCRF-CEM leukemia,> 100 µM
same,TGI,HCT-15 colon,> 100 µM
same,TGI,HS 578T breast,> 100 µM
same,TGI,M14 melanoma,> 100 µM
same,TGI,MCF7 breast,> 100 µM
same,TGI,SF-268 CNS,> 100 µM
same,TGI,SNB-75 CNS,> 100 µM
same,TGI,T-47D breast,> 100 µM
same,TGI,TK-10 renal,> 100 µM
CC(C)SC(C)(NC(=O)C1C(C)(C)CCC1(C)C)C(=O)O (centres undefined),TGI,CCRF-CEM leukemia,> 100 µM
same,TGI,HCT-15 colon,> 100 µM
same,TGI,HS 578T breast,> 100 µM
same,TGI,M14 melanoma,> 100 µM
same,TGI,MCF7 breast,> 100 µM
same,TGI,SF-268 CNS,> 100 µM
same,TGI,SK-MEL-28 melanoma,> 100 µM
same,TGI,SNB-75 CNS,> 100 µM
same,TGI,T-47D breast,> 100 µM
same,TGI,TK-10 renal,> 100 µM
